Measured values from US4201784A, “Substituted 2-[2'-(5"-nitrofuryl-2")vinyl-and 4'-(5"-nitrofuryl-2"-1,3-butadieryl]quinoline-4-carboxylic acid amides and salts thereof” (Institut Organicheskogo Sinteza Akademii Nauk Latviiskoi SSR, priority 1977, dated 1980).

Assays:
Ehrlich ascitic tumor [1] = assay: Antitumor activity, life prolongation of mice with Ehrlich ascitic tumor; format: in vivo
Experimental: The experiment was conducted as follows. 10^6 cells of Erlich tumuor were injected in common white mice intraperitoneally, the dose being given per each animal. […] Each dose of the preparation was tested in six mice. The control group included 18 mice. Giniquine solution was prepared by dissolving the substance ex tempore in distilled water or in a buffer. The effect of the preparation is shown on charts 1,2,3.

adenocarcinoma 755 = assay: Antitumor activity, adenocarcinoma 755; format: in vivo, mice; settings: daily doses of 10 and 17 mg/kg
Experimental: (§1) Apart from the tests on Ehrlich ascitic tumor, giniquine was studied on twelve more inoculated tumors. Seven tumors (melanoma B16, sarcoma AK, large intestine carcinoma acatol-1, sarcoma 180, adenocarcinoma 755, Lewis lung carcinoma and sarcoma 37) were inoculated subcutaneously with 50 mg of tumoral cells per mouse. Four tumors (lymphatic leukemies L 5178, L 5178Y, L 1210 and P-388) were inoculated intraperitoneally with 10^6 cells per mouse. One tumor (La, hemocytoblastosis) was inoculated intraperitoneally by injecting 50 mg of cell suspension of spleen and liver of mice suffering La hemocytoblastosis, per mouse. Giniquine was injected intraperitoneally five times for seven days: 1,2,3,4,7 days or 3,4,5,6,7 days after the implantation of tumor. The rate of deceleration of the tumor growth was established 14 days after the ultimate injection of giniquine; life of test animals was recorded for 60 days.

sarcoma 180 = assay: Antitumor activity, sarcoma 180; format: in vivo, mice
Experimental: as §1

[2] = test system: lymphatic leukemia L 5178; assay: Antitumor activity, life prolongation, lymphatic leukemia L 5178; format: in vivo, mice
Experimental: as §1

sarcoma AK = assay: Antitumor activity, sarcoma AK; format: in vivo, mice
Experimental: as §1

Lewis lung carcinoma = assay: Antitumor / antimetastatic activity, Lewis lung carcinoma; format: in vivo, mice; settings: daily doses of 6 and 10 mg/kg
Experimental: as §1

melanoma B16 = assay: Antitumor activity, melanoma B16; format: in vivo, mice; settings: 17 mg/kg
Experimental: as §1, with “Giniquine was injected intraperitoneally five times for seven days: 1,2,3,4,7 days or 3,4,5,6,7 days after the implantation of tumor.” left out

sarcoma 37 = assay: Antitumor activity, life prolongation, sarcoma 37; format: in vivo, mice
Experimental: as §1

Pliss lymphosarcoma = assay: Antitumor activity, Pliss lymphosarcoma; format: in vivo; settings: peroral administration
Source text: (§2) "J. Pharm. Soc. Japan." 1964, 84(6). pp. 537-543; K. Miura, I. Okada. "Chem. Pharm. Bull." 1965. 13 (15). pp. 525-528].

[3] = in vivo; cited from earlier work
Jensen sarcoma [4] = assay: Growth deceleration / antitumor activity, Jensen sarcoma; format: in vivo; settings: peroral administration
Source text: (§3) An antiblastic effect is caused by products of condensation of aldehydes of the nitrofuran series with (β-hydrazinoethyl)pyridine, 3-hydrazino-4-amino-1,2,4-triazole [Giller S. A., Kalnberga R. Yu., Zidermane A. A. et al. In the book "Methods of Synthesis and Search for Antitumor Preparations" (in Russian). Iss. 2. M. 1967. pp. 75-81; Giller S. A. et al. In the book "Furozolidine". (in Russian). Riga, 1962. pp. 5-18; Duavarte A. Zh., Zidermane A. A., Kravchenko I. M. et al. In the book "Proceedings of the 1st All-Union Conference on Chemotherapy of Malignant Tumors." Riga. 1968. pp. 216-217; Duavarte A. Zh. et al. In the book "Antitumor Compounds of the 5-nitrofuran Series." (in Russian). Riga, 1972. pp. 17-30)] and 5-aminobenzimidazol [Fuska J., Fuskova A., Jurasek A. "Neoplasma (Bratisl.)". 1973. v. 20. pp. 171-179].
as §2

Walker carcinosarcoma [5] = assay: Growth deceleration / antitumor activity, Walker carcinosarcoma; format: in vivo; settings: peroral administration
Source text: as §3, §2

acatol-1 = assay: Antitumor activity, large intestine adenocarcinoma acatol-1; format: in vivo, mice
Experimental: as §1

Walker carcinosarcoma [6] = settings: cited from earlier work
Jensen sarcoma [7] = settings: cited from earlier work
[8] = in vivo; cited from earlier work; remark: listed apart in the source
La hemocytoblastosis = assay: Antitumor activity, La hemocytoblastosis; format: in vivo, mice; settings: 10 mg/kg
Experimental: as §1

Ehrlich ascitic tumor [9] = assay: Influence of fluorafur on antitumor activity of giniquine, Ehrlich ascitic tumor; format: in vivo, mice
Experimental: In some experiments the influence of the known preparation fluorofur on the antitumoral activity of giniquine was studied. […] The tests were made on Ehrlich ascitic tumor. The preparations were injected 1,2,3,4 and 7 days after the implantation of tumor. Giniquine was injected intraperitoneally and fluorafur-subcutaneously.
giniquine was injected intraperitoneally, and fluorafursubcutaneously.

## CCN(CC)CCCC(C)NC(=O)c1cc(C=Cc2ccc([N+](=O)[O-])o2)nc2ccccc12 (stereo not drawn) [2-[2'-(5"-nitrofuryl-2")vinyl]quinoline-4-carboxylic acid (α-methyl-δ-diethylaminobutyl)amide chloride]
Ehrlich ascitic tumor [1]; single intraperitoneal injection, 6 mg/kg, 7 days after inoculation
  prolongation of life: 85%

## CCN(CC)CCCC(C)NC(=O)c1cc(C=Cc2ccc([N+](=O)[O-])o2)nc2ccccc12 (stereo not drawn) [2-[2'-(5"-nitrofuryl-2")vinyl]quinoline-4-carboxylic acid (α-methyl-δ-diethylaminobutyl)amide diphosphate]
Adenocarcinoma 755
  prolongation of life: up to 20%
Sarcoma 180; daily doses of 10 and 17 mg/kg
  prolongation of life: up to 20%
Ehrlich ascitic tumor [1]; 3-5 intraperitoneal injections, daily doses 10 to 28 mg/kg
  prolongation of life: 140 to 180%
[2]; lymphatic leukemia
  prolongation of life: up to 130%

## CCN(CC)CCCC(C)NC(=O)c1cc(C=Cc2ccc([N+](=O)[O-])o2)nc2ccccc12 (stereo not drawn) [2-[2'-(5"-nitrofuryl-2")vinyl]quinoline-4-carboxylic acid (α-methyl-δ-diethylaminobutyl)amide]
Sarcoma AK; sarcoma AK
  prolongation of life: up to 20%
Lewis lung carcinoma
  prolongation of life: 30%
Sarcoma 180; sarcoma 180
  prolongation of life: up to 20%
Melanoma B16
  prolongation of life: up to 25%
Ehrlich ascitic tumor [1]; three injections, 10 and 17 mg/kg
  prolongation of life: 70 to 130%
[2]; 6 to 28 mg/kg
  prolongation of life: 30 to 140%

## O=C(NCCCO)c1cc(C=Cc2ccc([N+](=O)[O-])o2)nc2ccccc12 [2-[2'-(5"-nitrofuryl-2")vinyl]quinoline-4-carboxylic acid (γ-hydroxypropyl)amide]
Sarcoma 37; 12.5 mg/kg
  prolongation of life: 90%
Sarcoma AK; 2.8 mg/kg
  prolongation of life: up to 20%
Ehrlich ascitic tumor [1]; 7.5 mg/kg to 12.5 mg/kg, five injections
  prolongation of life: up to 120%
[2]; lymphatic leukemia L 5178
  prolongation of life: up to 40%

## NC(=O)c1cc(C=Cc2ccc([N+](=O)[O-])o2)nc2ccccc12 [2-[2'-(5"-nitrofuryl-2")vinyl]quinoline-4-carboxylic acid amide]
Pliss lymphosarcoma
  antitumor activity: not found any antitumor activity
[3]
  antitumoral activity: a very narrow range of antitumoral activity
Jensen sarcoma [4]
  antitumor activity: not found any antitumor activity
Walker carcinosarcoma [5]
  antitumor activity: not found any antitumor activity

## CCN(CC)CCCC(C)NC(=O)c1cc(C=Cc2ccc([N+](=O)[O-])o2)nc2ccccc12 (stereo not drawn) [2-[2'-(5"-nitrofuryl-2")vinylquinoline]-4-carboxylic acid (α-methyl-δ-diethylaminobutyl)amide dibromide]
Ehrlich ascitic tumor [1]; single intraperitoneal injection, 28 mg/kg, 7 days after inoculation
  prolongation of life: 85%

## CCN(CC)CCCC(C)NC(=O)c1cc(C=CC=Cc2ccc([N+](=O)[O-])o2)nc2ccccc12 (stereo not drawn) [2-[4'-(5"-nitrofuryl-2")-1,3-butadienyl]quinoline-4-carboxylic acid (α-methyl-δ-diethylaminobutyl)amide diphosphate]
acatol-1; acatol-1
  antitumor effect / sensitivity (in words): a certain sensitivity
Sarcoma 37; daily dose of 17 mg/kg, intraperitoneal
  prolongation of life: up to 120%
Sarcoma 180; sarcoma 180
  antitumor effect / sensitivity (in words): a certain sensitivity
Ehrlich ascitic tumor [1]; doses of 3.6-10 mg/kg
  prolongation of life: 60 to 160%
[2]; lymphatic leukemia L 5178
  antiblastic activity / sensitivity (in words): a certain sensitivity

## O=Cc1ccc([N+](=O)[O-])o1 [5-nitrofurfural]
Walker carcinosarcoma [6]
  activity compared with 5-nitrofuran: about the same activity
Jensen sarcoma [7]
  activity compared with 5-nitrofuran: about the same activity
[8]
  acute toxicity compared with 5-nitrofuran: a higher acute toxicity

## O=[N+]([O-])c1ccco1 [Example 5-nitrofuran, 5-nitrofuran]
Walker carcinosarcoma [6]
  deceleration of growth: 39-51%
Jensen sarcoma [7]
  deceleration of growth: 39-51%

## O=C(NCCCO)c1cc(C=CC=Cc2ccc([N+](=O)[O-])o2)nc2ccccc12 [[4'-(5"-nitrofuryl-2")-1,3-butadienyl]quinoline-4-carboxylic acid (γ-hydroxypropyl)amide]
acatol-1; 10 mg/kg
  prolongation of life: about 20%
La hemocytoblastosis
  prolongation of life: about 20%
Ehrlich ascitic tumor [1]; 17 mg/kg
  prolongation of life: up to 80%
[2]; 1 mg/kg
  prolongation of life: up to 40%

## O=P1(N(CCCl)CCCl)NCCCO1 (stereo not shown) [cyclophosphane, reference compound]
Ehrlich ascitic tumor [1]; Ehrlich ascitic tumor
  increase in mice life: 0%

## O=c1[nH]c(=O)n(C2CCCO2)cc1F (stereo not shown) [fluorafur, reference compound]
Ehrlich ascitic tumor [9]; Test No. 1, fluorafur 39.0 mg/kg daily
  Life prolongation: 35%
Ehrlich ascitic tumor [9]; Test No. 1, fluorafur 65.0 mg/kg daily
  Life prolongation: 37%
Ehrlich ascitic tumor [9]; Test No. 1, fluorafur 108.0 mg/kg daily
  Life prolongation: 40%
Ehrlich ascitic tumor [9]; Test No. 1, fluorafur 180.0 mg/kg daily
  Life prolongation: 52%
Ehrlich ascitic tumor [9]; Test No. 2, fluorafur 39.0 mg/kg daily
  Life prolongation: 18%
Ehrlich ascitic tumor [9]; Test No. 2, fluorafur 65.0 mg/kg daily
  Life prolongation: -5%
Ehrlich ascitic tumor [9]; Test No. 2, fluorafur 108.0 mg/kg daily
  Life prolongation: -17%
Ehrlich ascitic tumor [9]; Test No. 2, fluorafur 180.0 mg/kg daily
  Life prolongation: -33%
